Literature values, collected in patent US10149828B2, “Oxybutynin transdermal therapeutic system combination” (priority 2015, dated 2018).

How the values were obtained:
[1] = administered orally to mice
[2] = [14C] oxybutynin, transdermal, rats
[3] = compared to placebo over six months; pivotal clinical trials
[4] = open-label, titrated to 6 mg twice daily, 26 weeks

Row | Structure (SMILES) | crossing of the Blood-Brain-Barrier [1] | radiolabel in the brain [2] | improvement on the 30-point Mini-Mental Status Examination (MMSE) [3] | improvement on the 70-point cognitive subscale of the Alzheimer's Disease Assessment Scale (ADAS-Cog) [3] [point] | cognitive functions in PD patients with dementia [4] | motor function in PD patients with dementia [4]
1 | CCN(CC)CC#CCOC(=O)C(O)(c1ccccc1)C1CCCCC1 (stereo not drawn) [oxybutynin, 4-diethylaminobut-2-ynyl 2-cyclohexyl-2-hydroxy-2-phenylethanoate] | has been shown to cross the Blood-Brain-Barrier | presence of radiolabel in the brain |  |  |  | 
2 | CCN(C)C(=O)Oc1cccc([C@H](C)N(C)C)c1 [rivastigmine, (S)-N-Ethyl-N-methyl-3-[1-(dimethylamino)ethyl]-phenyl carbamate] |  |  | 1-1.5 point | ~2.8 | may improve | no worsening
